Drawing on US8513411B2, “Tetrahydro-imidazo[1,5-α] pyrazine derivatives, preparation process and medicinal use thereof” (Jiangsu Hengrui Medicine Co., Ltd., priority 2007, dated 2013), this text covers IC50 for 25 compounds.

Where a name gives a salt, the structure may show the parent alone.

By IC50 is commonly meant the midpoint of a concentration-inhibition curve. A high value points to weaker potency.

For this test, the target named is DPP-IV enzyme (Homo sapiens, UniProt P27487). The test can be described thus: Assay for determining DPP-IV inhibitory activity (DPP-IV-Glo luminescence).
Sequence of DPP-IV enzyme (P27487 whole entry): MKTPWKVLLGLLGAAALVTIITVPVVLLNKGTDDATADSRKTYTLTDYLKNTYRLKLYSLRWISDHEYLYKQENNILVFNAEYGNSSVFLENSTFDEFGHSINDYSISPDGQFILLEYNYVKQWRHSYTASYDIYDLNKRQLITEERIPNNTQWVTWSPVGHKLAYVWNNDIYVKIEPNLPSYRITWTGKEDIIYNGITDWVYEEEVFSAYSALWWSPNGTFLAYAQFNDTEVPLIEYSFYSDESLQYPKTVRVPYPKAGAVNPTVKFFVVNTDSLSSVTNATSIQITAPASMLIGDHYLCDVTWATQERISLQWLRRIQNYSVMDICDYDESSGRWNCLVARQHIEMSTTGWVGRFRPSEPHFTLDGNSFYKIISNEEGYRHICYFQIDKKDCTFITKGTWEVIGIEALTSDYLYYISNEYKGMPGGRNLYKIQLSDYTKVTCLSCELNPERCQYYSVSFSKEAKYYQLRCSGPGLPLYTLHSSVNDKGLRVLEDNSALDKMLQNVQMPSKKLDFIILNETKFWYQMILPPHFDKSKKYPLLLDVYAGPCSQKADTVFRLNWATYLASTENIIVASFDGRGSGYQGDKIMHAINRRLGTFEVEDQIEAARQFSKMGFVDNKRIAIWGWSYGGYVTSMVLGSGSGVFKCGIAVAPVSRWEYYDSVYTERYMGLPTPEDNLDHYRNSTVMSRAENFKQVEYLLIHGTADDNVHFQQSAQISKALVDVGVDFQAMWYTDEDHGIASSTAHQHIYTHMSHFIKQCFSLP
Procedure: IC50 was determined by a NovoStar ELIASA (BMG Co. German);
The definition of inhibitory rate: [1−(S−B)/(N−B)]*100%
In the case of `CS(=O)(=O)CCNC(=O)c1nc(C(F)(F)F)n2c1CN(C(=O)C[C@H](N)Cc1cc(F)c(F)cc1F)CC2` [Example 2, (R)-7-[3-Amino-4-(2,4,5-trifluoro-phenyl)-butyryl]-3-trifluoromethyl-5,6,7,8-tetrahydro-imidazo[1,5-a]pyrazine-1-carboxylic acid (2-methanesulfonyl-ethyl)-amide hydrochloride], the concentration for half-maximal inhibition (IC50) turned out to be 8 nM.

`N[C@@H](CC(=O)N1CCn2c(C(F)(F)F)nc(C(=O)N3CCOCC3)c2C1)Cc1cc(F)c(F)cc1F` [Example 3, (R)-3-Amino-1-[1-(morpholine-4-carbonyl)-3-trifluoromethyl-5,6-dihydro-8H-imidazo[1,5-a]pyrazin-7-yl]-4-(2,4,5-trifluoro-phenyl)-butan-1-one hydrochloride] came in with an IC50 of 89 nM. This IC50 lies about 11-fold higher than the previous one. The result for `N#CCNC(=O)c1nc(C(F)(F)F)n2c1CN(C(=O)C[C@H](N)Cc1cc(F)c(F)cc1F)CC2` [Example 4, (R)-7-[3-Amino-4-(2,4,5-trifluoro-phenyl)-butyryl]-3-trifluoromethyl-5,6,7,8-tetrahydro-imidazo[1,5-a]pyrazine-1-carboxylic acid cyanomethyl-amide hydrochloride] reads 22 nM; that for `CN1CCN(C(=O)c2nc(C(F)(F)F)n3c2CN(C(=O)C[C@H](N)Cc2cc(F)c(F)cc2F)CC3)CC1` [Example 5, (R)-3-Amino-1-[1-(4-methyl-piperazine-1-carbonyl)-3-trifluoromethyl-5,6-dihydro-8H-imidazo[1,5-a]pyrazin-7-yl]-4-(2,4,5-trifluoro-phenyl)-butan-1-one dihydrochloride], 27 nM. In turn, `N[C@@H](CC(=O)N1CCn2c(C(F)(F)F)nc(C(=O)N3CCS(=O)(=O)CC3)c2C1)Cc1cc(F)c(F)cc1F` [Example 6, (R)-3-Amino-1-[1-(1,1-dioxo-thiomorpholine-4-carbonyl)-3-trifluoromethyl-5,6-dihydro-8H-imidazo[1,5-a]pyrazin-7-yl]-4-(2,4,5-trifluoro-phenyl)-butan-1-one hydrochloride] yielded an IC50 of 31 nM. The IC50 values of the last two compounds are within 1.5-fold of each other. The value for `NC(=O)C1CCN(C(=O)c2nc(C(F)(F)F)n3c2CN(C(=O)C[C@H](N)Cc2cc(F)c(F)cc2F)CC3)CC1` [Example 7, (R)-1-{7-[3-Amino-4-(2,4,5-trifluoro-phenyl)-butyryl]-3-trifluoromethyl-5,6,7,8-tetrahydro-imidazo[1,5-a]pyrazine-1-carbonyl}-piperidine-4-carboxylic acid amide hydrochloride] was 25 nM. `CNC(=O)c1nc(C(F)(F)F)n2c1CN(C(=O)C[C@H](N)Cc1cc(F)c(F)cc1F)CC2` [Example 8, (R)-7-[3-Amino-4-(2,4,5-trifluoro-phenyl)-butyryl]-3-trifluoromethyl-5,6,7,8-tetrahydro-imidazo[1,5-a]pyrazine-1-carboxylic acid methylamide hydrochloride] showed an IC50 of 8 nM.

In turn, `CN(C)C(=O)c1nc(C(F)(F)F)n2c1CN(C(=O)C[C@H](N)Cc1cc(F)c(F)cc1F)CC2` [Example 9, (R)-7-[3-Amino-4-(2,4,5-trifluoro-phenyl)-butyryl]-3-trifluoromethyl-5,6,7,8-tetrahydro-imidazo[1,5-a]pyrazine-1-carboxylic acid dimethylamide hydrochloride] yielded an IC50 of 75 nM.

`N[C@@H](CC(=O)N1CCn2c(C(F)(F)F)nc(C(=O)O)c2C1)Cc1cc(F)c(F)cc1F` [Example 10, (R)-7-[3-Amino-4-(2,4,5-trifluoro-phenyl)-butyryl]-3-trifluoromethyl-5,6,7,8-tetrahydro-imidazo[1,5-a]pyrazine-1-carboxylic acid hydrochloride] showed an IC50 of 21 nM. Against the preceding compound, the IC50 is about 3.6-fold lower.

As for `N[C@@H]1CCCN(C(=O)c2nc(C(F)(F)F)n3c2CN(C(=O)C[C@H](N)Cc2cc(F)c(F)cc2F)CC3)C1` [Example 11, (R)-3-Amino-1-[1-(3-amino-piperidine-1-carbonyl)-3-trifluoromethyl-5,6-dihydro-8H-imidazo[1,5-a]pyrazin-7-yl]-4-(2,4,5-trifluoro-phenyl)-butan-1-one dihydrochloride], the IC50 turned out to be 216 nM.

Turning to `N[C@@H](CC(=O)N1CCn2c(C(F)(F)F)nc(C(=O)N3CCCC3)c2C1)Cc1cc(F)c(F)cc1F` [Example 12, (R)-3-Amino-1-[1-(pyrrolidine-1-carbonyl)-3-trifluoromethyl-5,6-dihydro-8H-imidazo[1,5-a]pyrazin-7-yl]-4-(2,4,5-trifluoro-phenyl)-butan-1-one hydrochloride], the IC50 worked out at 59 nM. This IC50 lies about 3.7-fold lower than the previous one. As to `N[C@@H](CC(=O)N1CCn2c(C(F)(F)F)nc(C(=O)N3CCNCC3)c2C1)Cc1cc(F)c(F)cc1F` [Example 13, (R)-3-Amino-1-[1-(piperazine-1-carbonyl)-3-trifluoromethyl-5,6-dihydro-8H-imidazo[1,5-a]pyrazin-7-yl]-4-(2,4,5-trifluoro-phenyl)-butan-1-one dihydrochloride], the IC50 came out at 41 nM. The result for `N[C@@H](CC(=O)N1CCn2c(C(F)(F)F)nc(C(=O)N3CC[C@@H](O)C3)c2C1)Cc1cc(F)c(F)cc1F` [Example 14, (R)-3-Amino-1-[1-((R)-3-hydroxy-pyrrolidine-1-carbonyl)-3-trifluoromethyl-5,6-dihydro-8H-imidazo[1,5-a]pyrazin-7-yl]-4-(2,4,5-trifluoro-phenyl)-butan-1-one hydrochloride] reads 47 nM; that for `N[C@@H](CC(=O)N1CCn2c(C(F)(F)F)nc(C(=O)NC3CC3)c2C1)Cc1cc(F)c(F)cc1F` [Example 15, (R)-7-[3-Amino-4-(2,4,5-trifluoro-phenyl)-butyryl]-3-trifluoromethyl-5,6,7,8-tetrahydro-imidazo[1,5-a]pyrazine-1-carboxylic acid cyclopropylamide hydrochloride], 25 nM. The result for `CCOC(=O)c1nc(C(F)(F)F)n2c1CN(C(=O)C[C@H](N)Cc1cc(F)c(F)cc1F)CC2` [Example 23, (R)-7-[3-Amino-4-(2,4,5-trifluoro-phenyl)-butyryl]-3-trifluoromethyl-5,6,7,8-tetrahydro-imidazo[1,5-a]pyrazine-1-carboxylic acid ethyl ester hydrochloride] reads 31 nM; that for `CCOC(=O)OC(C)OC(=O)c1nc(C(F)(F)F)n2c1CN(C(=O)C[C@H](N)Cc1cc(F)c(F)cc1F)CC2` (stereo partly drawn) [Example 34, (R)-7-[3-Amino-4-(2,4,5-trifluoro-phenyl)-butyryl]-3-trifluoromethyl-5,6,7,8-tetrahydro-imidazo[1,5-a]pyrazine-1-carboxylic acid (1-ethoxycarbonyloxy)-ethyl ester hydrochloride], 31 nM. The result for `CC(C)(C)OC(=O)c1nc(C(F)(F)F)n2c1CN(C(=O)C[C@H](N)Cc1cc(F)c(F)cc1F)CC2` [Example 36, (R)-7-[3-Amino-4-(2,4,5-trifluoro-phenyl)-butyryl]-3-trifluoromethyl-5,6,7,8-tetrahydro-imidazo[1,5-a]pyrazine-1-carboxylic acid tert-butyl ester hydrochloride] reads 221 nM; that for `CC(C)OC(=O)OC(C)OC(=O)c1nc(C(F)(F)F)n2c1CN(C(=O)C[C@H](N)Cc1cc(F)c(F)cc1F)CC2` (stereo partly drawn) [Example 37, (R)-7-[3-Amino-4-(2,4,5-trifluoro-phenyl)-butyryl]-3-trifluoromethyl-5,6,7,8-tetrahydro-imidazo[1,5-a]pyrazine-1-carboxylic acid 1-isopropoxycarbonyloxy-ethyl ester hydrochloride], 33 nM; that for `CC(OC(=O)OC1CCCCC1)OC(=O)c1nc(C(F)(F)F)n2c1CN(C(=O)C[C@H](N)Cc1cc(F)c(F)cc1F)CC2` (stereo partly drawn) [Example 38, (R)-7-[3-Amino-4-(2,4,5-trifluoro-phenyl)-butyryl]-3-trifluoromethyl-5,6,7,8-tetrahydro-imidazo[1,5-a]pyrazine-1-carboxylic acid (1-cyclohexyloxycarbonyloxy)-ethyl ester hydrochloride], 184 nM. The compound `COC(=O)c1nc(C(F)(F)F)n2c1C(C)N(C(=O)C[C@H](N)Cc1cc(F)c(F)cc1F)CC2` (stereo partly drawn) [Example 39, (R)-7-[3-Amino-4-(2,4,5-trifluoro-phenyl)-butyryl]-8-methyl-3-trifluoromethyl-5,6,7,8-tetrahydro-imidazo[1,5-a]pyrazine-1-carboxylic acid methyl ester hydrochloride] registered an IC50 of 16 nM. Consider `COC(=O)c1nc(C(F)(F)F)n2c1[C@H](C)N(C(=O)C[C@H](N)Cc1cc(F)c(F)cc1F)CC2` [Example 40, (R)-7-[3-Amino-4-(2,4,5-trifluoro-phenyl)-butyryl]-(S)-8-methyl-3-trifluoromethyl-5,6,7,8-tetrahydro-imidazo[1,5-a]pyrazine-1-carboxylic acid methyl ester hydrochloride], for which inhibition was half-maximal at 314 nM (IC50). `COC(=O)c1nc(C(F)(F)F)n2c1[C@@H](C)N(C(=O)C[C@H](N)Cc1cc(F)c(F)cc1F)CC2` [Example 41, (R)-7-[3-Amino-4-(2,4,5-trifluoro-phenyl)-butyryl]-(R)-8-methyl-3-trifluoromethyl-5,6,7,8-tetrahydro-imidazo[1,5-a]pyrazine-1-carboxylic acid methyl ester hydrochloride]: the IC50 is 5 nM. The value for `CCNC(=O)c1nc(C(F)(F)F)n2c1CN(C(=O)C[C@H](N)Cc1cc(F)c(F)cc1F)CC2` [Example 42, (R)-7-[3-Amino-4-(2,4,5-trifluoro-phenyl)-butyryl]-3-trifluoromethyl-5,6,7,8-tetrahydro-imidazo[1,5-a]pyrazine-1-carboxylic acid ethylamide] was 18 nM; that for `CCCCNC(=O)c1nc(C(F)(F)F)n2c1CN(C(=O)C[C@H](N)Cc1cc(F)c(F)cc1F)CC2` [Example 43, (R)-7-[3-Amino-4-(2,4,5-trifluoro-phenyl)-butyryl]-3-trifluoromethyl-5,6,7,8-tetrahydro-imidazo[1,5-a]pyrazine-1-carboxylic acid butylamide] was 63 nM. The result for `CCCNC(=O)c1nc(C(F)(F)F)n2c1CN(C(=O)C[C@H](N)Cc1cc(F)c(F)cc1F)CC2` [Example 44, (R)-7-[3-Amino-4-(2,4,5-trifluoro-phenyl)-butyryl]-3-trifluoromethyl-5,6,7,8-tetrahydro-imidazo[1,5-a]pyrazine-1-carboxylic acid propylamide] reads 52 nM.
